The results in this text go back to ChEMBL document CHEMBL3046573, “Baseline sensitivity of Pestalotiopsis microspora, which causes black spot disease on Chinese hickory (Carya cathayensis), to pyraclostrobin” (Crop Prot, 2012).

Assay [1] concerns Pestalotiopsis microspora. Put plainly: Resistance factor, ratio of EC50 for pyraclostrobin-resistant mutant Pestalotiopsis microspora isolate LA1R2 to EC50 for wild type Pestalotiopsis microspora isolate LA-1. In kind it is functional.
Assay [2] concerns Pestalotiopsis microspora. Nature of the assay: Resistance factor, ratio of EC50 for pyraclostrobin-resistant mutant Pestalotiopsis microspora isolate LA1R1 to EC50 for wild type Pestalotiopsis microspora isolate LA-1. In kind it is functional.
Assay [3] concerns Pestalotiopsis microspora. Put plainly: Fungicidal activity against pyraclostrobin-resistant mutant Pestalotiopsis microspora isolate CA8R3 assessed as conidium germination inhibition at 25 degC. In kind it is functional, organism-based.
The subject of assay [4] is Pestalotiopsis microspora. Put plainly: Fungicidal activity against pyraclostrobin-resistant mutant Pestalotiopsis microspora isolate CA8R2 assessed as conidium germination inhibition at 25 degC. In kind it is functional, organism-based.
The test system of assay [5] is Pestalotiopsis microspora. Put plainly: Fungicidal activity against pyraclostrobin-resistant mutant Pestalotiopsis microspora isolate CA8R1 assessed as conidium germination inhibition at 25 degC. In kind it is functional, organism-based.
Assay [6] concerns Pestalotiopsis microspora. Nature of the assay: Fungicidal activity against wild type Pestalotiopsis microspora isolate CA-8 assessed as conidium germination inhibition at 25 degC. In kind it is functional, organism-based.
Assay [7] has as its system Pestalotiopsis microspora. Nature of the assay: Fungicidal activity against pyraclostrobin-resistant mutant Pestalotiopsis microspora isolate LA1R2 assessed as conidium germination inhibition at 25 degC. In kind it is functional, organism-based.
Assay [8] concerns Pestalotiopsis microspora. Put plainly: Fungicidal activity against pyraclostrobin-resistant mutant Pestalotiopsis microspora isolate LA1R1 assessed as conidium germination inhibition at 25 degC. In kind it is functional, organism-based.
Assay [9] relates to Pestalotiopsis microspora. Put plainly: Fungicidal activity against wild type Pestalotiopsis microspora isolate LA-1 assessed as conidium germination inhibition at 25 degC. In kind it is functional, organism-based.
In assay [10] the test system is Pestalotiopsis microspora. Put plainly: Fungicidal activity against Pestalotiopsis microspora infected in Chinese hickory orchards assessed as conidium germination inhibition at 25 degC after 24 hr. In kind it is functional, organism-based.
For assay [11], the system named is Pestalotiopsis microspora. Put plainly: Fungicidal activity against Pestalotiopsis microspora infected Chinese hickory orchards assessed as mycelial growth inhibition at 25 degC after 5 days. In kind it is functional, organism-based. The note with it: 120 h.
For assay [12], the system named is Pestalotiopsis microspora. Nature of the assay: Resistance factor, ratio of EC50 for pyraclostrobin-resistant mutant Pestalotiopsis microspora isolate CA8R3 to EC50 for wild type Pestalotiopsis microspora isolate CA-8. In kind it is functional.
For assay [13], the system named is Pestalotiopsis microspora. Nature of the assay: Resistance factor, ratio of EC50 for pyraclostrobin-resistant mutant Pestalotiopsis microspora isolate CA8R2 to EC50 for wild type Pestalotiopsis microspora isolate CA-8. In kind it is functional.
Assay [14] relates to Pestalotiopsis microspora. Nature of the assay: Resistance factor, ratio of EC50 for pyraclostrobin-resistant mutant Pestalotiopsis microspora isolate CA8R1 to EC50 for wild type Pestalotiopsis microspora isolate CA-8. In kind it is functional.
In assay [15] the test system is Pestalotiopsis microspora. Put plainly: Fungicidal activity against Pestalotiopsis microspora isolates infected Chinese hickory orchards by conidium germination test. In kind it is functional, organism-based.

SMILES strings stand for the structures. ≈ marks a conversion by molar mass, not a printed value.

For orientation: EC50 means the concentration that produces a half-maximal response. On to `CO/C=C(/C(=O)OC)c1ccccc1Oc1cc(Oc2ccccc2C#N)ncn1` [AZOXYSTROBIN], for which the “Ratio EC50” value came to 38.16 in assay [1]; 14.94 in assay [2]; 20.25 in [12]; 28.82 in [13]; 22.75 in assay [14]. Further, the EC50 was found to be 15.4 µg/mL (≈ 38.2 µM) in [3]; 21.9 µg/mL (≈ 54.3 µM) in [4]; 17.3 µg/mL (≈ 42.9 µM) in assay [5]; 0.76 µg/mL (≈ 1.88 µM) in assay [6]; 12.2 µg/mL (≈ 30.3 µM) in assay [7]; 4.78 µg/mL (≈ 11.8 µM) in [8]. For the same molecule, the values for the EC50 in assay [9], in assay [10] and in [11] were 0.32 µg/mL (≈ 0.793 µM), 1.36 µg/mL (≈ 3.37 µM) and 2.61 µg/mL (≈ 6.47 µM), respectively.
Turning to `O=C(Nc1ccccc1-c1ccc(Cl)cc1)c1cccnc1Cl` [BOSCALID], the “Ratio EC50” value in assay [1] is 1.02; in assay [2], 0.98; in assay [12], 1.05; in assay [13] it was 0.95; in assay [14], 0.97. Moreover, the half-maximal effective concentration (EC50) in assay [3] worked out at 19 µg/mL (≈ 55.4 µM); in assay [4], 17.7 µg/mL (≈ 51.6 µM); in assay [5] it was 18.1 µg/mL (≈ 52.7 µM); in assay [6], 18.6 µg/mL (≈ 54.2 µM); in assay [7], 20.6 µg/mL (≈ 60 µM); in [8], 19.7 µg/mL (≈ 57.4 µM). Moreover, the results for the EC50 in assay [9], in assay [10] and in [11] were 20.1 µg/mL (≈ 58.6 µM), 23.9 µg/mL (≈ 69.7 µM) and 167 µg/mL (≈ 486 µM), respectively.
Turning to `N#Cc1c(Cl)c(Cl)c(Cl)c(C#N)c1Cl` [CHLOROTHALONIL], the concentration giving a half-maximal response (EC50) in [10] amounted to 3.05 µg/mL (≈ 11.5 µM); in assay [11], 2.08 µg/mL (≈ 7.82 µM).
On to `CC1COC(Cn2cncn2)(c2ccc(Oc3ccc(Cl)cc3)cc2Cl)O1` (configuration not stated) [DIFENOCONAZOLE], for which the EC50 in [10] worked out at 28.5 µg/mL (≈ 70.1 µM); in [11], 4.27 µg/mL (≈ 10.5 µM).
For the molecule `CC(=O)O.CCCCCCCCCCCCNC(=N)N` [DODINE], the EC50 in [10] turned out to be 32.7 µg/mL; in [11], 27 µg/mL.
On to `CC(C)NC(=O)N1CC(=O)N(c2cc(Cl)cc(Cl)c2)C1=O` [IPRODIONE], for which the EC50 is 9.87 µg/mL (≈ 29.9 µM) in [10] and 2.03 µg/mL (≈ 6.15 µM) in assay [11].
On to `CC12CC1(C)C(=O)N(c1cc(Cl)cc(Cl)c1)C2=O` (configuration not stated) [PROCYMIDONE], for which the EC50 in assay [10] came out at 12 µg/mL (≈ 42.3 µM); in assay [11], 1.68 µg/mL (≈ 5.91 µM).
On to `COC(=O)N(OC)c1ccccc1COc1ccn(-c2ccc(Cl)cc2)n1` [PYRACLOSTROBIN], for which the “Ratio EC50” value in assay [1] turned out to be 406; in [2], 179; in [12] it was 106; in assay [13], 240; in assay [14], 204. Moreover, the concentration for a half-maximal effect (EC50) is 4.25 µg/mL (≈ 11 µM) in [3]; 9.59 µg/mL (≈ 24.7 µM) in assay [4]; 8.17 µg/mL (≈ 21.1 µM) in [5]; 0.04 µg/mL (≈ 0.103 µM) in [6]; 12.2 µg/mL (≈ 31.4 µM) in [7]; 5.67 µg/mL (≈ 14.6 µM) in assay [8]. Besides, the half-maximal effective concentration (EC50) in [9] was 0.03 µg/mL (≈ 0.0774 µM); in assay [10] it was 0.08 µg/mL (≈ 0.206 µM); in assay [11], 0.92 µg/mL (≈ 2.37 µM); in [15] it was 0.13 µg/mL (≈ 0.335 µM).
For `CC(C)(C)C(O)(CCc1ccc(Cl)cc1)Cn1cncn1` (configuration not stated) [TEBUCONAZOLE], the EC50 in [10] was 20.1 µg/mL (≈ 65.3 µM); in assay [11], 1.42 µg/mL (≈ 4.61 µM).
For `COC(=O)NC(=S)Nc1ccccc1NC(=S)NC(=O)OC` [THIOPHANATE METHYL] the same measures were 25.7 µg/mL (≈ 75 µM) and 1.45 µg/mL (≈ 4.23 µM).
